The subject of data set [1] is IL-4 production from anti-CD3-stimulated murine splenocytes. The data set is described as follows: Anti-CD3 stimulated IL-4 assay from murine splenocytes. The following applies: Mus musculus, Splenocyte, 72 h; BALB/c splenocytes, anti-CD3 stimulation, 3 days, IL-4 ELISA; read-out: IC50 IL-4 release inhibition- assay. The format is cell-based. The method, then: Anti-CD3 stimulated IL-4 Assay from Murine Splenocytes.
The tyrosine kinase ITK is involved in intracellular signaling events induced by several lymphocyte surface receptors. Since ITK deficient mice show an impairment in IL-4 production from T cells, a cell based assay for IL-4 production is used to measure the cellular potency of the ITK inhibitors of the present invention. In this assay the level of IL-4 is measured from the media of anti-CD3-stimulated murine splenocytes, and the ability of compounds of the present invention to inhibit this response is determined.
Spleens from the mouse strain BALB/c are isolated and used to prepare a suspension of mixed splenocytes. The spleens are homogenized with cell strainer (Falcon Cat#352350 and 5 ml syringe) in RPMI media. The mixture is spun down, and the pellets are suspended in 3 ml of Red Blood Cell Lysing Buffer (Sigma Cat#7757) and left for 10 minutes at room temperature. Cells are spun down again, and resuspended in RPMI with 10% FBS and passed through cell strainer. Total cell numbers are determined with hemocytometer.
Splenocytes are adjusted to a cell density of 10 million per ml of RPMI medium supplemented with 10% Foetal Bovine Serum (FBS) and 100 uls of the suspension plated out per well of a 96 round bottom plate. 50 uls of RPMI medium containing 4× the final concentration of test compound is added per well. For IC50 determination the following concentrations of compound are used. The starting concentration is 10 uM and 7 series of 1:3 dilutions are followed, and each compound concentration is set up in triplicate wells. 50 ul of 4× concentration are added. Cell cultures are then stimulated by addition of 50 ul of a 4 ug/ml solution of anti-CD3 antibody, (BD Bioscience Cat #553166) made up in RPMI plus 10% FBS media, and incubated in a 37° C. CO2 incubator for 3 days. At the end of the 3 day incubation, culture medium is taken and 50 uls used to assay IL-4 production by ELISA (IL-4 ELISA kit from R&D Systems, city. Cat #M4000 kit) according to the standard conditions described by the manufacturer.
IL-4 levels are plotted as a function of compound concentration. The concentration of compound resulting in 50% inhibition of IL-4, termed IC50(IL-4), is determined from the resulting curve.
Assay Procedure • 1. Add 100 ul of 1×10E7/ml mouse splenocytes in RPMI plus 10% FBS media to 96 well round bottom plates. • 2. Add 50 ul of Itk compounds (4× final concentration) in RPMI plus 10% FBS media • 3. Add 50 ul of 4 ug/ml anti-CD3 antibody in RPMI plus 10% FBS media • 4. Incubate at 37 c CO2 incubator for 3 days • 5. Transfer 150 ul culture media into fresh plate • 6. 50 ul of the media is subject to Elisa analysis (R & D Cat #M4000 kit) FlashPlate ITK Protocol for ITK Inhibition Determination
For orientation: ELISA stands for enzyme-linked immunosorbent assay.

For data set [2], the target named is T1, ITK (Homo sapiens, UniProt Q08881).
T1 construct: made in house
T1 sequence (Q08881 1-620): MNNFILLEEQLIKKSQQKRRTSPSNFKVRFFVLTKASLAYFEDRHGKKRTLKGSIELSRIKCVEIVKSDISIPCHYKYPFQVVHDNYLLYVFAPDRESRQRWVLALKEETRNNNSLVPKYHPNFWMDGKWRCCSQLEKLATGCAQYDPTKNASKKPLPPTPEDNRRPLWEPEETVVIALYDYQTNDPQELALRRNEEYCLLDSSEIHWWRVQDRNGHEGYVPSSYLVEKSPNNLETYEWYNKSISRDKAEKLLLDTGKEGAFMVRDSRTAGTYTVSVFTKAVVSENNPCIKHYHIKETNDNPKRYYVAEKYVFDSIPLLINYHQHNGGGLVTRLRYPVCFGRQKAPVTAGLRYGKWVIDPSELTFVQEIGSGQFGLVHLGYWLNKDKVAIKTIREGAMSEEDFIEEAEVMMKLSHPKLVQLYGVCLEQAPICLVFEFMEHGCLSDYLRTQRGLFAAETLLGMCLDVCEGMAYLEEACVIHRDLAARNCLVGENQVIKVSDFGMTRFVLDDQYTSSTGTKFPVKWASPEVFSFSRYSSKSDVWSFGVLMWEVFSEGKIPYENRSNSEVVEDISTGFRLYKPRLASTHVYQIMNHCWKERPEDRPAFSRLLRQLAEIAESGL
The data set is described as follows: FlashPlate ITK protocol for ITK inhibition determination (ITK autophosphorylation, [γ-33P]ATP). The format is biochemical. The following applies: MBP-tagged ITK, read-out: IC50 (enzyme inhibition)-. The method, then: ITK kinase is produced with an N-terminal Maltose Binding Protein tag (MW=˜114 kDa) using a Baculovirus expression system. The transfer of radioactive [γ-^33P] phosphate from [γ-^33P]ATP to ITK during the autophosphorylation of ITK is measured by scintillation counting. Streptavidin-coated FlashPlate Plus™ 384 well microplates (PerkinElmer Life Sciences) are designed for in-plate radiometric assays. The interior of each well is permanently coated with a thin layer of scintillant and a covalently bound layer of Streptavidin. ITK is incubated with [γ-^33P]ATP, biotinylated anti-MBP antibody (Cell Signaling Technology™) and test compounds in a 384-well Streptavidin-coated FlashPlate. The biotinylated anti-MBP binds tightly to the MBP-tagged ITK and cross-links it to Streptavidin on the plate surface. Unreacted ^33P-ATP is washed away and ^33P-phosphorylated ITK is measured when the [γ-^33P] incorporated into ITK stimulates the scintillant on the well to emit light. Radioactivity is assessed in a Packard
TopCount scintillation counter. Reagents are pipetted and dispensed using Beckman Biomek robotic equipment. Test compounds (2 μl per well) are pre-diluted from 1 mM 100% dimethyl sulfoxide solutions into water containing 30% dimethyl sulfoxide to produce dose response curves (10 point curves from (final) 30 μM to ˜1 nM); all tests are performed in duplicate. Background binding is assessed by substituting the enzyme inhibitor EDTA (25 mM final concentration) for test compound and maximal binding is assessed by inclusion of assay buffer instead of compound. Test compounds are added to the wells first (2 μl) followed by 10 μl enzyme solution in assay buffer. After 30 minutes pre-incubation, all other reagents are added in a 10 μl volume. The final reagent concentrations/well are as follows: 20 nM enzyme, 0.25 μCi [γ-^33P]ATP, assay buffer: 20 mM HEPES (pH 7.5), 0.15 M NaCl, 3 mM MgCl2, 3 mM MnCl2, 0.01% Triton X-100, 1 mM DTT, 5% glycerol and 0.01% γ-globulin. The plate is incubated at room temperature (RT) for 60 minutes for the kinase reaction. The reaction is stopped with 20 μl of 50 mM EDTA and the biotinylated anti-MBP is allowed to bind to the ITK and the Streptavidin for a further 60 minutes at RT. The unbound reagents are washed away with 2×100 μl phosphate-buffered saline (PBS). Radioactivity is measured for 45 sec/well.

Counter-ions that a name gives are not always drawn.

Usually melting point stands for the temperature, or range, at which the solid turns liquid. `O=C(c1cc2[nH]nc(-c3cc4cc(CO)ccc4[nH]3)c2s1)N1CCN(c2ccc(F)cc2)CC1` yielded a melting point of 156 to 158 °C. In turn, `OC(c1ccc2cc(-c3n[nH]c4ccsc34)[nH]c2c1)(C1CC1)C1CC1` displayed a melting point of 110 to 112 °C. Take `OC1CCCN(CCCOc2ccc3cc(-c4n[nH]c5cc(-c6ccccc6)sc45)[nH]c3c2)C1` (stereo not shown): the melting point fell in the range of 213 to 216 °C. By IC50 is commonly meant the concentration that inhibits the measured activity by half. For the molecule `c1ccc2[nH]c(-c3n[nH]c4ccsc34)nc2c1` [Example 1, 2-(1H-Thieno[3,2-c]pyrazol-3-yl)-1H-benzimidazole], the IC50 came out at 264 nM in data set [1] and 167 nM in data set [2]. In the same order, the values of `COc1ccc2nc(-c3n[nH]c4ccsc34)[nH]c2c1` [Example 2, 6-Methoxy-2-(1H-thieno[3,2-c]pyrazol-3-yl)-1H-benzoimidazole] are 164 nM and 157 nM. For the molecule `COc1ccc2nc(-c3n[nH]c4c3sc3ccccc34)[nH]c2c1` [Example 3, 3-(6-Methoxy-1H-benzimidazol-2-yl)-1H-benzo[4,5]thieno[3,2-c-]pyrazole], the IC50 worked out at 2900 nM in data set [1] and 86 nM in data set [2]. Consider `c1cc2[nH]nc(-c3cc4cc(OCCCN5CCCCC5)ccc4[nH]3)c2s1` [Example 5, 5-(3-Piperidin-1-yl-propoxy)-2-(1H-thieno[3,2-c]pyrazol-3-yl)-indole], for which the values for the IC50 in data set [1] and in data set [2] were 153 nM and 16.6 nM, respectively. In the same order, the values of `OC1CCN(CCCOc2ccc3cc(-c4n[nH]c5ccsc45)[nH]c3c2)CC1` [Example 6, 1-{3-[2-(1H-Thieno[3,2-c]pyrazol-3-yl)-1H-indol-6-yloxy]-propyl}-piperidin-4-ol] are 180 nM and 3.65 nM. In the same order, the values of `c1cc2[nH]nc(-c3cc4ccc(OCCCN5CCCCC5)cc4[nH]3)c2s1` [Example 7, 6-(3-Piperidin-1-yl-propoxy)-2-(1H-thieno[3,2-c]pyrazol-3-yl)-1H-indole] are 163 nM and 1.89 nM. The matching figures for `OC1CCCN(CCCOc2ccc3cc(-c4n[nH]c5ccsc45)[nH]c3c2)C1` (stereo not shown) [Example 8, 1-{3-[2-(1H-Thieno[3,2-c]pyrazol-3-yl)-1H-indol-6-yloxy]-propyl}-piperidin-3-ol]: 11.3 nM and 1.62 nM. Consider `OCC1CCCN(CCCOc2ccc3cc(-c4n[nH]c5ccsc45)[nH]c3c2)C1` (stereo not shown) [Example 9, (1-{3-[2-(1H-Thieno[3,2-c]pyrazol-3-yl)-1H-indol-6-yloxy]-propyl}-piperidin-3-yl)-methanol], for which the IC50 amounted to 129 nM in data set [1] and 2.08 nM in data set [2]. In the same order, the values of `CCN1CCN(CCCOc2ccc3cc(-c4n[nH]c5ccsc45)[nH]c3c2)CC1` [Example 10, 6-[3-(4-Ethyl-piperazin-1-yl)-propoxy]-2-(1H-thieno[3,2-c]pyrazol-3-yl)-1H-indole] are 289 nM and 2.94 nM. On to `CN(C)CCCOc1ccc2cc(-c3n[nH]c4ccsc34)[nH]c2c1` [Example 11, Dimethyl-{3-[2-(1H-thieno[3,2-c]pyrazol-3-yl)-1H-indol-6-yloxy]-propyl}-amine], for which the IC50 in data set [2] came out at 24.2 nM. As to `CCN(CC)CCCOc1ccc2cc(-c3n[nH]c4ccsc34)[nH]c2c1` [Example 12, Diethyl-{3-[2-(1H-thieno[3,2-c]pyrazol-3-yl)-1H-indol-6-yloxy]-propyl}-amine], in data set [2], the IC50 was 5.22 nM. Same read-out and setting: for `C=CCN(CC=C)CCCOc1ccc2cc(-c3n[nH]c4ccsc34)[nH]c2c1` [Example 13, Diallyl-{3-[2-(1H-thieno[3,2-c]pyrazol-3-yl)-1H-indol-6-yloxy]-propyl}-amine] the value was 12.3 nM. On the same count and under the same terms, next, `OC1CCN(CCCOc2ccc3cc(-c4n[nH]c5ccsc45)[nH]c3c2)C1` (stereo not shown) [Example 14, 1-{3-[2-(1H-Thieno[3,2-c]pyrazol-3-yl)-1H-indol-6-yloxyl]-propyl}-pyrrolidin-3-ol]: 15.1 nM; `CN(CCO)CCCOc1ccc2cc(-c3n[nH]c4ccsc34)[nH]c2c1` [Example 15, 2-(Methyl-{3-[2-(1H-thieno[3,2-c]pyrazol-3-yl)-1H-indol-6-yloxy]-propyl}-amino)-ethanol]: 3.26 nM; `OC1CCN(CCCOc2ccc3[nH]c(-c4n[nH]c5ccsc45)cc3c2)CC1` [Example 16, 1-{3-[2-(1H-Thieno[3,2-c]pyrazol-3-yl)-1H-indol-5-yloxy]-propyl}-piperidin-4-ol]: 40.9 nM. On the same count and under the same terms, for `OC1CCCN(CCCOc2ccc3[nH]c(-c4n[nH]c5ccsc45)cc3c2)C1` (stereo not shown) [Example 17, 1-{3-[2-(1H-Thieno[3,2-c]pyrazol-3-yl)-1H-indol-5-yloxy]-propyl}-piperidin-3-ol] the value was 76.3 nM. Regarding `OCC1CCCN(CCCOc2ccc3[nH]c(-c4n[nH]c5ccsc45)cc3c2)C1` (stereo not shown) [Example 18, (1-{3-[2-(1H-Thieno[3,2-c]pyrazol-3-yl)-1H-indol-5-yloxy]-propyl}-piperidin-3-yl)-methanol], the IC50 in data set [2] stood at 41 nM.

As for `OC1CCN(CCCOc2ccc3[nH]c(-c4n[nH]c5ccsc45)cc3c2)C1` (stereo not shown) [Example 19, 1-{3-[2-(1H-Thieno[3,2-c]pyrazol-3-yl)-1H-indol-5-yloxy]-propyl}-pyrrolidin-3-ol], the IC50 in data set [2] was found to be 45.7 nM. The same measure, in the same setting: for `c1ccc2c(c1)sc1c(-c3nc4ccc(OCCCN5CCCCC5)cc4[nH]3)n[nH]c12` [Example 20, 3-(5-(3-Piperidin-1-yl-propoxy)-1H-Benzoimidazol-2-yl)-1H-benzo[4,5]thieno[3,2-c]pyrazole hydrochloride] the value was 112 nM.

The values are drawn from patent US7928231B2, “Thienopyrazoles” (priority 2003, dated 2011).
